US9200001B2, “Triazolyl PDE10 inhibitors” (Merck Sharp & Dohme Corp., priority 2011, dated 2015)

What follows are compounds tested against human PDE10A2 (Homo sapiens (Human), UniProt Q9Y233) (assay: PDE10 fluorescence polarization (IMAP FP) inhibition assay). Settings: FAM-labeled cAMP 50 nM, room temperature, read-out: PDE10a Ki.
Type: biochemical
Protocol: The activity of the compounds in accordance with the present invention as PDE10 inhibitors may be readily determined without undue experimentation using a fluorescence polarization (FP) methodology that is well known in the art (Huang, W., et al., J. Biomol Screen, 2002, 7: 215).
In a typical experiment the PDE10 inhibitory activity of the compounds of the present invention was determined in accordance with the following experimental method. PDE10A2 was amplified from human fetal brain cDNA (Clontech, Mountain View, Calif.) using a forward primer corresponding to nucleotides 56-77 of human PDE10A2 (Accession No. AF127480, Genbank Identifier 4894716), containing a Kozak consensus sequence, and a reverse primer corresponding to nucleotides 2406-2413 of human PDE10A2 (Accession No. AF127480, Genbank Identifier 4894716). Amplification with Easy-A polymerase (Stratagene, La Jolla, Calif.) was 95° C. for 2 minutes followed by thirty three cycles of 95° C. for 40 seconds, 55° C. for 30 seconds, and 72° C. for 2 minutes 48 seconds. Final extension was 72° C. for 7 minutes. The PCR product was TA cloned into pcDNA3.2-TOPO (Invitrogen, Carlsbad, Calif.) according to standard protocol. AD293 cells with 70-80% confluency were transiently transfected with human PDE10A2/pcDNA3.2-TOPO using Lipofectamine 2000 according to manufacturer specifications (Invitrogen, Carlsbad, Calif.). Cells were harvested 48 hours post-transfection and lysed by sonication (setting 3, 10×5 sec pulses) in a buffer containing 20 mM HEPES, 1 mM EDTA and protease inhibitor cocktail (Roche). Lysate was collected by centrifugation at 75,000×g for 20 minutes. Supernatant containing the cytoplasmic fraction was used for evaluation of PDE10A2 activity. The fluorescence polarization assay for cyclic nucleotide phosphodiesterases was performed using an IMAP® FP kit supplied by Molecular Devices, Sunnyvale, Calif. (product # R8139). IMAP® technology has been applied previously to phosphodiesterase assays (Huang, W., et al., J. Biomol Screen, 2002, 7: 215). Assays were performed at room temperature in 384-well microtiter plates with an incubation volume of 20.2 μL. Solutions of test compounds were prepared in DMSO and serially diluted with DMSO to yield 8 μL of each of 10 solutions differing by 3-fold in concentration, at 32 serial dilutions per plate. 100% inhibition is determined using a known PDE10 inhibitor, which can be any compound that is present at 5,000 times its Ki value in the assay described as follows, such as papaverine (see Siuciak, et al. Neuropharmacology (2006) 51:386-396; Becker, et al. Behav Brain Res (2008) 186(2):155-60; Threlfell, et al., J Pharmacol Exp Ther (2009) 328(3):785-795), 2-{4-[pyridin-4-yl-1-(2,2,2-trifluoroethyl)-1H-pyrazol-3-yl]phenoxymethyl}quinoline succinic acid or 2-[4-(1-methyl-4-pyridin-4-yl-1H-pyrazol-3-yl)-phenoxymethyl]quinoline succinic acid (see Schmidt, et al. J Pharmacol Exp Ther (2008) 325:681-690; Threlfall, et al., J Pharmacol Exp Ther (2009) 328(3): 785-795). 0% of inhibition is determined by using DMSO (1% final concentrations).
A Labcyte Echo 555 (Labcyte, Sunnyvale, Calif.) is used to dispense 200 nL from each well of the titration plate to the 384 well assay plate. A solution of enzyme (1/1600 dilution from aliquots; sufficient to produce 20% substrate conversion) and a separate solution of FAM-labeled cAMP PDE from Molecular Devices (product # R7506), at a final concentration of 50 nM are made in the assay buffer (10 mM Tris HCl, pH 7.2, 10 mM MgCl2, 0.05% NaN3 0.01% Tween-20, and 1 mM DTT). The enzyme and the substrate are then added to the assay plates in two consecutive additions of 10 μL, and then shaken to mix. The reaction is allowed to proceed at room temperature for 30 minutes. A binding solution is then made from the kit components, comprised of 80% Solution A, 20% Solution B and binding reagent at a volume of 1600 the total binding solution. […]

human PDE10A2, sequence (Q9Y233 267-1055): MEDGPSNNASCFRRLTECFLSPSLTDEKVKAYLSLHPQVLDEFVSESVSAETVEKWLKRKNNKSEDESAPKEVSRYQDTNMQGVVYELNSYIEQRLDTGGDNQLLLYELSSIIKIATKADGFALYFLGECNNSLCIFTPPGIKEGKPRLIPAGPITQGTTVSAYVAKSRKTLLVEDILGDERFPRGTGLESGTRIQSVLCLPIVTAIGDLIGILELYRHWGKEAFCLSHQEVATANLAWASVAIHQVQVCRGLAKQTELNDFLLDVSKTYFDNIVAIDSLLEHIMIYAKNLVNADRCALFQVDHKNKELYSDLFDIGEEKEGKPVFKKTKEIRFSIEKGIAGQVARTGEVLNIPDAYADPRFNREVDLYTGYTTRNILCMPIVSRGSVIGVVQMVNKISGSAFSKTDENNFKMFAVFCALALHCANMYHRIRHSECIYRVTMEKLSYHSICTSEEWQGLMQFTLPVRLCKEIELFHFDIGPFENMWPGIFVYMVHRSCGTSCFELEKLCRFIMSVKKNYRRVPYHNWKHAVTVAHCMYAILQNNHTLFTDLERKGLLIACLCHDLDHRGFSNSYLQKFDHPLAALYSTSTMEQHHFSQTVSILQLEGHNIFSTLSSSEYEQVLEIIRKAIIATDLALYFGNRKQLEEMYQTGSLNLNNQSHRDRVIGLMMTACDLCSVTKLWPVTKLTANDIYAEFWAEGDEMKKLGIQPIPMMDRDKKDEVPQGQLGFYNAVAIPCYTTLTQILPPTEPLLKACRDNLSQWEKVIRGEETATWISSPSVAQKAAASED

Row | Structure (SMILES) | Ki [nM]
1 | Cc1nc([C@@H]2C[C@H]2c2nc3ccccc3n2Cc2cccnc2)cc(-n2nc(C)nc2C)n1 (stereo in doubt) [Cpd 74, 2-{2-[6-(3,5-dimethyl-1H-1,2,4-triazol-1-yl)-2-methylpyrimidin-4-yl]cyclopropyl}-1-(pyridin-3-ylmethyl)-1H-benzimidazole] | 9.9
2 | Cc1nc([C@@H]2C[C@H]2c2nc3ccccc3n2Cc2ccncc2)cc(-n2nc(C)nc2C)n1 (stereo in doubt) [Cpd 76, 2-{2-[6-(3,5-dimethyl-1H-1,2,4-triazol-1-yl)-2-methylpyrimidin-4-yl]cyclopropyl}-1-(pyridin-4-ylmethyl)-1H-benzimidazole] | 18.3
3 | COc1ccc(Cc2nc(C)nn2-c2cc(C3CC3c3nc(C)no3)nc(C)n2)cc1OC (stereo not shown) [Cpd 24, 5-(2-(6-(5-(3,4-dimethoxybenzyl)-3-methyl-1H-1,2,4-triazol-1-yl)-2-methylpyrimidin-4-yl)cyclopropyl)-3-methyl-1,2,4-oxadiazole] | 248
4 | Cc1nc([C@@H]2C[C@H]2c2nc3ccccc3n2C(C)C)cc(-n2nc(C)nc2C)n1 (stereo in doubt) [Cpd 71, 2-{2-[6-(3,5-dimethyl-1H-1,2,4-triazol-1-yl)-2-methylpyrimidin-4-yl]cyclopropyl}-1-(1-methylethyl)-1H-benzimidazole] | 13.6
5 | COc1ccc(Cc2nc(C)nn2-c2cc([C@H]3C[C@@H]3c3nc4ccccc4[nH]3)nc(C)n2)cc1OC [Cpd 25, 2-((1S,2S)-2-(6-(5-(3,4-dimethoxybenzyl)-3-methyl-1H-1,2,4-triazol-1-yl)-2-methylpyrimidin-4-yl)cyclopropyl)-1H-benzo[d]imidazole] | 0.027
6 | COc1ccc(Cc2nc(C)nn2-c2cc(C3CC3c3nc4ccccc4n3C)nc(C)n2)cc1OC (stereo not shown) [Cpd 28, 2-(2-(6-(5-(3,4-dimethoxybenzyl)-3-methyl-1H-1,2,4-triazol-1-yl)-2-methylpyrimidin-4-yl)cyclopropyl)-1-methyl-1H-benzo[d]imidazole] | 0.003
7 | COc1ccc(Cc2nc(C)nn2-c2cc(C#Cc3ccc4ncccc4n3)nc(C)n2)cc1OC [Cpd 14, 2-((6-(5-(3,4-dimethoxybenzyl)-3-methyl-1H-1,2,4-triazol-1-yl)-2-methylpyrimidin-4-yl)ethynyl)-1,5-naphthyridine] | 0.82
8 | Cc1nc(C)n(-c2cc([C@H]3C[C@@H]3c3nc4ccccc4n3C)nc(OCC(F)(F)F)n2)n1 (relative stereo) [Cpd 124, trans-2-{2-[6-(3,5-dimethyl-1H-1,2,4-triazol-1-yl)-2-(2,2,2-trifluoroethoxy)pyrimidin-4-yl]cyclopropyl}-1-methyl-1H-benzimidazole] | 1.5
9 | Cc1nc(C)n(-c2cc([C@@H]3C[C@H]3c3nc4ccccc4n3C)nc(C(C)(C)O)n2)n1 [Cpd 131, 2-(4-(3,5-dimethyl-1H-1,2,4-triazol-1-yl)-6-((1R,2R)-2-(1-methyl-1H-benzo[d]imidazol-2-yl)cyclopropyl)pyrimidin-2-yl)propan-2-ol] | 0.88
10 | Cc1nc([C@@H]2C[C@H]2c2nc3ccccc3n2C)cc(-n2nc(C)nc2C2CCOCC2)n1 [Cpd 97, 1-methyl-2-[(1R,2R)-2-{2-methyl-6-[3-methyl-5-(tetrahydro-2H-pyran-4-yl)-1H-1,2,4-triazol-1-yl]pyrimidin-4-yl}cyclopropyl]-1H-benzimidazole] | 1.1
11 | COc1ccc(Cc2nc(C)nn2-c2cc(CCc3ccc4ncccc4n3)nc(C)n2)cc1OC [Cpd 16, 2-(2-(6-(5-(3,4-dimethoxybenzyl)-3-methyl-1H-1,2,4-triazol-1-yl)-2-methylpyrimidin-4-yl)ethyl)-1,5-naphthyridine] | 0.027
12 | COc1ccc(Cc2nc(C)nn2-c2cc(C3CC3c3nnc(C)s3)nc(C)n2)cc1OC (stereo not shown) [Cpd 29, 2-(2-(6-(5-(3,4-dimethoxybenzyl)-3-methyl-1H-1,2,4-triazol-1-yl)-2-methylpyrimidin-4-yl)cyclopropyl)-5-methyl-1,3,4-thiadiazole] | 9.8
13 | Cc1nc([C@H]2C[C@@H]2c2nnc(-c3ccn(C)n3)s2)cc(-n2nc(C)nc2C)n1 [Cpd 105, 4-(3,5-dimethyl-1H-1,2,4-triazol-1-yl)-2-methyl-6-{(1S,2S)-2-[5-(1-methyl-1H-pyrazol-3-yl)-1,3,4-thiadiazol-2-yl]cyclopropyl}pyrimidine] | > 75
14 | Cc1nc([C@@H]2C[C@H]2c2nc3ccccc3n2CCN(C)C)cc(-n2nc(C)nc2C)n1 (stereo in doubt) [Cpd 72, 2-(2-{2-[6-(3,5-dimethyl-1H-1,2,4-triazol-1-yl)-2-methylpyrimidin-4-yl]cyclopropyl}-1H-benzimidazol-1-yl)-N,N-dimethylethanamine] | 14.2
15 | Cc1nc(C2CC2c2nc3ccccc3n2-c2ccccc2)cc(-n2nc(C)nc2C)n1 (stereo not shown) [Cpd 51, 2-(2-(6-(3,5-dimethyl-1H-1,2,4-triazol-1-yl)-2-methylpyrimidin-4-yl)cyclopropyl)-1-phenyl-1H-benzo[d]imidazole] | 38.8
16 | CSc1nc([C@@H]2C[C@H]2c2nc3ccccc3n2C)cc(-n2nc(C)nc2C)n1 [Cpd 69, 2-{(1R,2R)-2-[6-(3,5-dimethyl-1H-1,2,4-triazol-1-yl)-2-(methylsulfanyl)pyrimidin-4-yl]cyclopropyl}-1-methyl-1H-benzimidazole] | 0.37
17 | COC[C@H](C)Oc1nc([C@@H]2C[C@H]2c2nc3ccccc3n2C)cc(-n2nc(C)nc2C)n1 [Cpd 67, 2-[(1R,2R)-2-{6-(3,5-dimethyl-1H-1,2,4-triazol-1-yl)-2-[(1S)-2-methoxy-1-methylethoxy]pyrimidin-4-yl]cyclopropyl}-1-methyl-1H-benzimidazole] | 0.9
18 | Cc1nc(C)n(-c2cc([C@H]3C[C@@H]3c3nc4ccccc4n3C)nc(N)n2)n1 (relative stereo) [Cpd 123, trans-4-(3,5-dimethyl-1H-1,2,4-triazol-1-yl)-6-[2-(1-methyl-1H-benzimidazol-2-yl)cyclopropyl]pyrimidin-2-amine] | 4.2
19 | Cc1nc([C@H]2C[C@@H]2c2nc3ccccc3s2)cc(-n2nc(C)nc2C)n1 [Cpd 104, 2-{(1S,2S)-2-[6-(3,5-dimethyl-1H-1,2,4-triazol-1-yl)-2-methylpyrimidin-4-yl]cyclopropyl}-1,3-benzothiazole] | 69.5
20 | Cc1nc([C@H]2C[C@@H]2c2nc3ccccc3n2C)cc(-n2nc(C)nc2CN(C)C)n1 (stereo in doubt) [Cpd 87, N,N-dimethyl-1-(3-methyl-1-{2-methyl-6-[2-(1-methyl-1H-benzimidazol-2-yl)cyclopropyl]pyrimidin-4-yl}-1H-1,2,4-triazol-5-yl)methanamine] | 10.6
21 | Cc1nc(C)n(-c2cc([C@@H]3C[C@H]3c3nc4ccccc4n3C)nc(OCC3(C)CC3)n2)n1 [Cpd 137, 2-((1R,2R)-2-(6-(3,5-dimethyl-1H-1,2,4-triazol-1-yl)-2-((1-methylcyclopropyl)methoxy)pyrimidin-4-yl)cyclopropyl)-1-methyl-1H-benzo[d]imidazole] | 0.84
22 | Cc1nc(C)n(-c2cc([C@H]3C[C@@H]3c3nc4ccccc4n3C)nc(N3CCN(C)CC3)n2)n1 (relative stereo) [Cpd 121, trans-2-{2-[6-(3,5-dimethyl-1H-1,2,4-triazol-1-yl)-2-(4-methylpiperazin-1-yl)pyrimidin-4-yl]cyclopropyl}-1-methyl-1H-benzimidazole] | 3.1
